In the kinase profiling compilation of Christmann-Franck et al. (2016):

How the values were obtained:
Assay in all cases: KINOMEscan competition binding
Conditions in all cases: compound 1.0 µM
AAK1 (human) = AAK1 (human) (UniProt Q2M2I8)
ANKK1 (human) = ANKK1 (human) (UniProt Q8NFD2)
CAMKK1 (human) = CAMKK1 (human) (UniProt Q8N5S9)
CDC42BPG (human) = CDC42BPG (human) (UniProt Q6DT37)
CDK9 (human) = CDK9 (human) (UniProt P50750)
CSNK1G3 (human) = CSNK1G3 (human) (UniProt Q9Y6M4)
CSNK2A2 (human) = CSNK2A2 (human) (UniProt P19784)
DCLK2 (human) = DCLK2 (human) (UniProt Q8N568)
Chain of DCLK2 (human) (Q8N568 whole entry, looked up): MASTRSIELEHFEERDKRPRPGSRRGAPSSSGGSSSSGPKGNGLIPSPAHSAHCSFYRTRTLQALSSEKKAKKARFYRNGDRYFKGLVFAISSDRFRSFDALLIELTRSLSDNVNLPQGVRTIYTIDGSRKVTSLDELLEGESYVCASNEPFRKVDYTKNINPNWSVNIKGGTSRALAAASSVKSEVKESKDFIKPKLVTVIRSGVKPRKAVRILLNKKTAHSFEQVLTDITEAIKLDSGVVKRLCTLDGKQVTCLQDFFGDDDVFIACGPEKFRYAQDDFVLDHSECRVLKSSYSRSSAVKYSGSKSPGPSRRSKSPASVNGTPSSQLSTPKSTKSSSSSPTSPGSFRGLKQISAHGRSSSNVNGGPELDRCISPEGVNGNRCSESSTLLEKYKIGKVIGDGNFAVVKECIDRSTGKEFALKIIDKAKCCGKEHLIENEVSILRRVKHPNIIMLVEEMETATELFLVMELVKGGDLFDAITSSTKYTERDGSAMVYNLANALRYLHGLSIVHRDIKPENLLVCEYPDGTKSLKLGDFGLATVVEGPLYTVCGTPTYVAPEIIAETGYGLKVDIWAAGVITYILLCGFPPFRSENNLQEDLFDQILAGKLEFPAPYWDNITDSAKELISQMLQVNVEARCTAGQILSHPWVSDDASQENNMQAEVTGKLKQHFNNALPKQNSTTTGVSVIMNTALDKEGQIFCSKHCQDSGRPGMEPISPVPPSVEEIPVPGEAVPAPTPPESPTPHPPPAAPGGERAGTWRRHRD

DYRK2 (human) = DYRK2 (human) (UniProt Q92630)
Chain of DYRK2 (human) (Q92630 whole entry, looked up): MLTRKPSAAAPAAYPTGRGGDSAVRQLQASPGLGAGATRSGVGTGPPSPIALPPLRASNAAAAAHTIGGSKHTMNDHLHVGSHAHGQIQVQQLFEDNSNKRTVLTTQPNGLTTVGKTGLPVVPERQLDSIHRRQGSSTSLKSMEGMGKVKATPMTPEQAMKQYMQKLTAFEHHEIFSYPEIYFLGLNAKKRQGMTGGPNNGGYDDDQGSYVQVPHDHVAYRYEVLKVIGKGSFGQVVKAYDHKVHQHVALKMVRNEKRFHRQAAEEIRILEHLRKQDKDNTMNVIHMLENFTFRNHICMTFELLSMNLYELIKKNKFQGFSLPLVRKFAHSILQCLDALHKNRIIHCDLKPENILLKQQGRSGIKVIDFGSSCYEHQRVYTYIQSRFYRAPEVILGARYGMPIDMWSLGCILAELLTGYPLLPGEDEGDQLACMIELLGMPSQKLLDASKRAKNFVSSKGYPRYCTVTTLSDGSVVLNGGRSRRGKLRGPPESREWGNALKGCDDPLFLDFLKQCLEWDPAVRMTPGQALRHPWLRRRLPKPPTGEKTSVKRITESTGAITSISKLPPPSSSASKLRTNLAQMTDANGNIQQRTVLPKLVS

EIF2AK1 (human) = EIF2AK1 (human) (UniProt Q9BQI3)
Chain of EIF2AK1 (human) (Q9BQI3 whole entry, looked up): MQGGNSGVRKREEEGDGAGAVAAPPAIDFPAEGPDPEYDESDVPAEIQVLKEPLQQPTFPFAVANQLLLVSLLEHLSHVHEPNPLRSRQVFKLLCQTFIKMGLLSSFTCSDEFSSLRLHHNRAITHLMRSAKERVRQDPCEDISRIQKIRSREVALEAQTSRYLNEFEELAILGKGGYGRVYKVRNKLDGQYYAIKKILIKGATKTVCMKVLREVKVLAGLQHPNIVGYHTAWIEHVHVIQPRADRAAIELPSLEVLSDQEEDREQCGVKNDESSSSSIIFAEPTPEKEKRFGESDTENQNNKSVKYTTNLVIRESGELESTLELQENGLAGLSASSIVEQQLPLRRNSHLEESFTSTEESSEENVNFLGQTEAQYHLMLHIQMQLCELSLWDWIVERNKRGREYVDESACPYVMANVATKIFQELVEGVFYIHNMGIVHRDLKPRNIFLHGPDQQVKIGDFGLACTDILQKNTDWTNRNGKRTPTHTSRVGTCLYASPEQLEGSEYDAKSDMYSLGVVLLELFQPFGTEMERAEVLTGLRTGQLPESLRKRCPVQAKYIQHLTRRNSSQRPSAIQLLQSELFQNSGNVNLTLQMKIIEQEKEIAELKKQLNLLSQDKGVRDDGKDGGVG

EPHA1 (human) = EPHA1 (human) (UniProt P21709)
EPHB3 (human) = EPHB3 (human) (UniProt P54753)
FGFR1 (human) = FGFR1 (human) (UniProt P11362)
FGR (human) = FGR (human) (UniProt P09769)
[1] = system: FLT3 (human), P36888 [K663Q]
[2] = system: FLT3 (human), P36888 [N841I]
FYN (human) = FYN (human) (UniProt P06241)
GSK3A (human) = GSK3A (human) (UniProt P49840)
HIPK3 (human) = HIPK3 (human) (UniProt Q9H422)
IGF1R (human) = IGF1R (human) (UniProt P08069)
IKBKE (human) = IKBKE (human) (UniProt Q14164)
LATS2 (human) = LATS2 (human) (UniProt Q9NRM7)
MAP4K1 (human) = MAP4K1 (human) (UniProt Q92918)
MAPK10 (human) = MAPK10 (human) (UniProt P53779)
MAPK11 (human) = MAPK11 (human) (UniProt Q15759)
MAPK7 (human) = MAPK7 (human) (UniProt Q13164)
MLTK (human) = MLTK (human) (UniProt Q9NYL2)
PAK3 (human) = PAK3 (human) (UniProt O75914)
[3] = system: PIK3CA (human), P42336 [C420R]
Chain of PIK3CA (human), P42336 [C420R] (P42336 whole entry C420R, looked up): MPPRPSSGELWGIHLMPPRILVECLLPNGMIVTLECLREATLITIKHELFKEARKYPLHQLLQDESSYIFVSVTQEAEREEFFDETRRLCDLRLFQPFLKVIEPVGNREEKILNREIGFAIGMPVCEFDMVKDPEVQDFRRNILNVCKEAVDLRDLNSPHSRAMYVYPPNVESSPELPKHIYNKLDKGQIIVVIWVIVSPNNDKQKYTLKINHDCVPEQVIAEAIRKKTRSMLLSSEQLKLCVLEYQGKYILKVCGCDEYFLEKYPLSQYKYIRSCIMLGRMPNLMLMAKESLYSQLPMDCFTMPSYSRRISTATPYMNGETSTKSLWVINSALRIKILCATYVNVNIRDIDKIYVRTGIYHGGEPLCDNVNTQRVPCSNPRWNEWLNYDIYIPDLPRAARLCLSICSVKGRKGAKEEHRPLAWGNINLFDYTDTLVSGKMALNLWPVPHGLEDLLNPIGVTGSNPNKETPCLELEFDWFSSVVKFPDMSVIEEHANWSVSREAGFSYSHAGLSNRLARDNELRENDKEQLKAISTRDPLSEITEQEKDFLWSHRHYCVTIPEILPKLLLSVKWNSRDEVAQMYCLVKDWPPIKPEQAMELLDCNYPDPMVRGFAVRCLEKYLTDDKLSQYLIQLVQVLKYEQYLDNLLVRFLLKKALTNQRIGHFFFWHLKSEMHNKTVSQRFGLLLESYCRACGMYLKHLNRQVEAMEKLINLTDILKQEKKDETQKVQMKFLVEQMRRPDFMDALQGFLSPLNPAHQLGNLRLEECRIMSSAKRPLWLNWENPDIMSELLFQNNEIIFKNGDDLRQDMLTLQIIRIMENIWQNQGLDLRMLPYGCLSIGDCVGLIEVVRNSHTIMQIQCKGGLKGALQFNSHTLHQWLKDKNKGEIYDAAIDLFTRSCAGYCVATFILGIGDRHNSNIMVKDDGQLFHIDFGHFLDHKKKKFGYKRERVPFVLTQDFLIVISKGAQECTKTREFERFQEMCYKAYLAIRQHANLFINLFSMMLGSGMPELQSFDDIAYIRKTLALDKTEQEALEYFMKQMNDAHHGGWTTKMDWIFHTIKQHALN

[4] = system: PIK3CA (human), P42336 [I800L]
Chain of PIK3CA (human), P42336 [I800L] (P42336 whole entry I800L, looked up): as the sequence (P42336 whole entry C420R, looked up) above, with R420C, I800L counted along it

[5] = system: PIK3CA (human), P42336 [Q546K]
Chain of PIK3CA (human), P42336 [Q546K] (P42336 whole entry Q546K, looked up): as the sequence (P42336 whole entry C420R, looked up) above, with R420C, Q546K counted along it

PKMYT1 (human) = PKMYT1 (human) (UniProt Q99640)
PKN3 (M.tuberculosis) = PKN3 (M.tuberculosis) (UniProt Q6P5Z2)
RET (human) = RET (human) (UniProt P07949)
SBK1 (human) = SBK1 (human) (UniProt Q52WX2)
SIK3 (human) = SIK3 (human) (UniProt Q9Y2K2)
STK10 (human) = STK10 (human) (UniProt O94804)
Chain of STK10 (human) (O94804 whole entry, looked up): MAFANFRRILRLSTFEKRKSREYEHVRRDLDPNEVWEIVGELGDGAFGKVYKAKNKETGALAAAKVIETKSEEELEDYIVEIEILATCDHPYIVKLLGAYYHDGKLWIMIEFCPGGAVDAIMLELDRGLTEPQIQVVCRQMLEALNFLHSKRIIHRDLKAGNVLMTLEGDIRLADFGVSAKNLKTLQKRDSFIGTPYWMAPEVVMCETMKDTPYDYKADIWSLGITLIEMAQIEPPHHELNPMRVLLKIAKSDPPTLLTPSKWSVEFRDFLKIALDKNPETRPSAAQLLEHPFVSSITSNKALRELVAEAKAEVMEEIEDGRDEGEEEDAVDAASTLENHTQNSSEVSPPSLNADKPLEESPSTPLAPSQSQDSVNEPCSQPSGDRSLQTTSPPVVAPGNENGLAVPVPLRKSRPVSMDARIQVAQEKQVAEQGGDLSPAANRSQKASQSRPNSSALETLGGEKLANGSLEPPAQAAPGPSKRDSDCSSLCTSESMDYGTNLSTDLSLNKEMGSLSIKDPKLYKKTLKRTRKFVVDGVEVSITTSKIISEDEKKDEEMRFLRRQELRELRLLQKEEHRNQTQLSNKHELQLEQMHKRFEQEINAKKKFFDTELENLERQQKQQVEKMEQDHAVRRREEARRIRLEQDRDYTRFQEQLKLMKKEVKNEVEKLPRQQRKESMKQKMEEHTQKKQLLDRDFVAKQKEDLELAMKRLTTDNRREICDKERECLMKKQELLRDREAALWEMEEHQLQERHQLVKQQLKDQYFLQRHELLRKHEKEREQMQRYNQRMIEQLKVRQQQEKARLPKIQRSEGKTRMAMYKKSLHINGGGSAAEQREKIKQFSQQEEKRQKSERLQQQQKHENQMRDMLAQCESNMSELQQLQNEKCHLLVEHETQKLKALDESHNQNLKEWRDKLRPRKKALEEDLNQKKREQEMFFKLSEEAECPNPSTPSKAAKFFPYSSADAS

WNK1 (human) = WNK1 (human) (UniProt Q9H4A3)
WNK3 (human) = WNK3 (human) (UniProt Q9BYP7)

Chain of ANKK1 (human) (Q8NFD2 whole entry, looked up): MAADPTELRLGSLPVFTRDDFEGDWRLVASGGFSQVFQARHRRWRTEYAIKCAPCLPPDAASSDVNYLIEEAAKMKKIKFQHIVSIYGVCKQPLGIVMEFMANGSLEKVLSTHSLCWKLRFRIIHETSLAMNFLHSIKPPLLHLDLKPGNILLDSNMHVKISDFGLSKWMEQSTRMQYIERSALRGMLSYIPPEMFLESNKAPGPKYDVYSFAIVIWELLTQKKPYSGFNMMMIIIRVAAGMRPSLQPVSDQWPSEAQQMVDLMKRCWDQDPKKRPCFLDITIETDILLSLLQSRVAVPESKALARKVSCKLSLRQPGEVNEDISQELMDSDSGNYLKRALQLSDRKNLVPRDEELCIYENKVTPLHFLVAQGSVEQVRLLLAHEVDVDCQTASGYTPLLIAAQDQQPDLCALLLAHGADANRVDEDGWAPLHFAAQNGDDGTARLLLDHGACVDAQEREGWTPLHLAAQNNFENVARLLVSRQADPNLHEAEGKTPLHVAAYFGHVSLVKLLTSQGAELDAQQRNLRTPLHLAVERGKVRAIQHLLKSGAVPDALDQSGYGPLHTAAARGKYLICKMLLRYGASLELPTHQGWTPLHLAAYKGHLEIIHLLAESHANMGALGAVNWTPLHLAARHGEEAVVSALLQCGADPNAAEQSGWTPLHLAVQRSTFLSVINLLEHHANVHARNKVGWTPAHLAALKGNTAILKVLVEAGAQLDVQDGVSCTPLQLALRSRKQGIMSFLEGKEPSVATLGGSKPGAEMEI

SMILES: CNc1nc(Nc2ccc(C(=O)N3CCOCC3)cc2OC)ncc1Cl
- kinase still bound, per cent of control (AAK1 (human)): 38%
- kinase still bound, per cent of control (ANKK1 (human)): 100%
- kinase still bound, per cent of control (CAMKK1 (human)): 79%
- kinase still bound, per cent of control (CDC42BPG (human)): 100%
- residual activity (CDK9 (human)): 100%
- kinase still bound, per cent of control (CSNK1G3 (human)): 100%
- kinase still bound, per cent of control (CSNK2A2 (human)): 74%
- kinase still bound, per cent of control (DCLK2 (human)): 100%
- kinase still bound, per cent of control (DYRK2 (human)): 91%
- kinase still bound, per cent of control (EIF2AK1 (human)): 100%
- kinase still bound, per cent of control (EPHA1 (human)): 100%
- kinase still bound, per cent of control (EPHB3 (human)): 100%
- kinase still bound, per cent of control (FGFR1 (human)): 55%
- kinase still bound, per cent of control (FGR (human)): 100%
- kinase still bound, per cent of control [1]: 53%
- kinase still bound, per cent of control [2]: 73%
- kinase still bound, per cent of control (FYN (human)): 56%
- kinase still bound, per cent of control (GSK3A (human)): 100%
- kinase still bound, per cent of control (HIPK3 (human)): 47%
- residual activity (IGF1R (human)): 100%
- kinase still bound, per cent of control (IKBKE (human)): 86%
- kinase still bound, per cent of control (LATS2 (human)): 100%
- kinase still bound, per cent of control (MAP4K1 (human)): 100%
- kinase still bound, per cent of control (MAPK10 (human)): 42%
- kinase still bound, per cent of control (MAPK11 (human)): 100%
- kinase still bound, per cent of control (MAPK7 (human)): 98%
- kinase still bound, per cent of control (MLTK (human)): 100%
- kinase still bound, per cent of control (PAK3 (human)): 88%
- kinase still bound, per cent of control [3]: 85%
- kinase still bound, per cent of control [4]: 96%
- kinase still bound, per cent of control [5]: 100%
- kinase still bound, per cent of control (PKMYT1 (human)): 97%
- kinase still bound, per cent of control (PKN3 (M.tuberculosis)): 85%
- kinase still bound, per cent of control (RET (human)): 96%
- kinase still bound, per cent of control (SBK1 (human)): 100%
- kinase still bound, per cent of control (SIK3 (human)): 100%
- kinase still bound, per cent of control (STK10 (human)): 100%
- kinase still bound, per cent of control (WNK1 (human)): 100%
- kinase still bound, per cent of control (WNK3 (human)): 93%
